Measured values: the CheMixHub viscosity set

Experiment: xn = mol fraction of the nth substance listed

O=[N+]([O-])c1ccccc1 + OCCOCCO
viscosity [mPa·s], 101 kPa
Conditions | 298.15 K | 308.15 K
x2 = 0.0441 | 1.987 | 1.691
x2 = 0.1493 | 2.565 | 2.115
x2 = 0.2505 | 3.312 | 2.642
x2 = 0.3502 | 4.303 | 3.31
x2 = 0.4438 | 5.55 | 4.117
x2 = 0.4934 | 6.373 | 4.632
x2 = 0.5487 | 7.457 | 5.293
x2 = 0.6506 | 10.04 | 6.804
x2 = 0.751 | 13.58 | 8.774
x2 = 0.8498 | 18.47 | 11.34
x2 = 0.9429 | 24.89 | 14.54

CC12CC3CC(C)(C1)CC(C)(C3)C2 + CCCCCCCCC
viscosity [mPa·s], 100 kPa
Conditions | x1 = 0.1012 | x1 = 0.2132 | x1 = 0.3009 | x1 = 0.3978 | x1 = 0.4998 | x1 = 0.6007 | x1 = 0.6969 | x1 = 0.7984 | x1 = 0.8985
293.15 K | 0.831 | 0.936 | 1.021 | 1.11 | 1.231 | 1.395 | 1.593 | 1.852 | 2.201
298.15 K | 0.775 | 0.87 | 0.95 | 1.028 | 1.135 | 1.282 | 1.458 | 1.685 | 1.995
303.15 K | 0.726 | 0.812 | 0.883 | 0.952 | 1.052 | 1.183 | 1.342 | 1.544 | 1.818
308.15 K | 0.682 | 0.76 | 0.825 | 0.889 | 0.978 | 1.095 | 1.238 | 1.418 | 1.662
313.15 K | 0.639 | 0.711 | 0.771 | 0.831 | 0.914 | 1.022 | 1.147 | 1.309 | 1.526
318.15 K | 0.603 | 0.67 | 0.724 | 0.781 | 0.859 | 0.954 | 1.067 | 1.212 | 1.408
323.15 K | 0.569 | 0.633 | 0.681 | 0.737 | 0.807 | 0.894 | 0.996 | 1.13 | 1.304

C=CC(C)(O)CCC=C(C)C (centres undefined) + COC(C)(C)C
298.15 K, 101.33 kPa
Conditions | viscosity [mPa·s]
x2 = 0.0756 | 3.692
x2 = 0.1208 | 3.314
x2 = 0.1819 | 2.856
x2 = 0.3063 | 2.093
x2 = 0.3763 | 1.761
x2 = 0.5129 | 1.25
x2 = 0.5989 | 0.9982
x2 = 0.7222 | 0.7171
x2 = 0.8148 | 0.5569
x2 = 0.9106 | 0.4273
x2 = 0.9692 | 0.3605

CC(C)CCl + CC(C)(C)O
viscosity [mPa·s], 101.33 kPa
Conditions | x1 = 0.0982 | x1 = 0.2011 | x1 = 0.3047 | x1 = 0.4029 | x1 = 0.5031 | x1 = 0.6023 | x1 = 0.6979 | x1 = 0.7997 | x1 = 0.8948
298.15 K | 2.345 | 1.477 | 1.065 | 0.8424 | 0.6988 | 0.604 | 0.5388 | 0.4863 | 0.3827
313.15 K | 1.359 | 0.9661 | 0.7571 | 0.6303 | 0.5423 | 0.481 | 0.437 | 0.4053 | 0.3751
